Assays:
[1] = tested on: Tyrosine-protein kinase ABL1 (Homo sapiens), P00519 [M351T]; test: Inhibition of ABL1 M351T mutant (unknown origin) assessed as remaining activity at 1 uM by Kinome scan method relative to control
[2] = biological target: Bone morphogenetic protein receptor type-2 (Homo sapiens) (UniProt Q13873); test: Inhibition of BMPR2 (unknown origin) assessed as remaining activity at 1 uM by Kinome scan method relative to control
[3] = tested on: Serine/threonine-protein kinase B-raf (Homo sapiens), P15056 [V600E]; test: Inhibition of BRAF V600E mutant (unknown origin) assessed as remaining activity at 1 uM by Kinome scan method relative to control
[4] = biological target: Serine/threonine-protein kinase Chk2 (Homo sapiens) (UniProt O96017); test: Inhibition of CHEK2 (unknown origin) assessed as remaining activity at 1 uM by Kinome scan method relative to control
[5] = tested on: Epidermal growth factor receptor (Homo sapiens), P00533 [G719S]; test: Inhibition of EGFR G719S mutant (unknown origin) assessed as remaining activity at 1 uM by Kinome scan method relative to control
[6] = biological target: Ephrin type-A receptor 8 (Homo sapiens) (UniProt P29322); test: Inhibition of EPHA8 (unknown origin) assessed as remaining activity at 1 uM by Kinome scan method relative to control
[7] = biological target: Homeodomain-interacting protein kinase 1 (Homo sapiens) (UniProt Q86Z02); test: Inhibition of HIPK1 (unknown origin) assessed as remaining activity at 1 uM by Kinome scan method relative to control
[8] = biological target: Mitogen-activated protein kinase kinase kinase 3 (Homo sapiens) (UniProt Q99759); test: Inhibition of MAP3K3 (unknown origin) assessed as remaining activity at 1 uM by Kinome scan method relative to control
[9] = biological target: Cyclin-dependent kinase 15 (Homo sapiens) (UniProt Q96Q40); test: Inhibition of PFTAIRE2 (unknown origin) assessed as remaining activity at 1 uM by Kinome scan method relative to control
[10] = biological target: Ribosomal protein S6 kinase alpha-6 (Homo sapiens) (UniProt Q9UK32); test: Inhibition of N-terminal kinase domain RPS6KA6 (unknown origin) assessed as remaining activity at 1 uM by Kinome scan method relative to control
[11] = biological target: Uncharacterized serine/threonine-protein kinase SBK3 (Homo sapiens) (UniProt P0C264); test: Inhibition of SgK110 (unknown origin) assessed as remaining activity at 1 uM by Kinome scan method relative to control
[12] = biological target: Tyrosine-protein kinase Srms (Homo sapiens) (UniProt Q9H3Y6); test: Inhibition of SRMS (unknown origin) assessed as remaining activity at 1 uM by Kinome scan method relative to control
[13] = biological target: Mitogen-activated protein kinase kinase kinase 7 (Homo sapiens) (UniProt O43318); test: Inhibition of TAK1 (unknown origin) assessed as remaining activity at 1 uM by Kinome scan method relative to control
[14] = biological target: Serine/threonine-protein kinase MRCK beta (Homo sapiens) (UniProt Q9Y5S2); test: Inhibition of human CDC42BPB assessed as residual activity at 1 uM using RB-S6P as substrate in presence of 33P-ATP by ProQinase assay relative to control
[15] = biological target: CDK6/cyclin D1 (Homo sapiens) (UniProt P24385+Q00534); test: Inhibition of human CDK6/CycD1 assessed as residual activity at 1 uM using RBER-CHKtide as substrate in presence of 33P-ATP by ProQinase assay relative to control; type: protein-complex assay
[16] = biological target: Death-associated protein kinase 1 (Homo sapiens) (UniProt P53355); test: Inhibition of human DAPK1 assessed as residual activity at 1 uM using RBER-GSK3 as substrate in presence of 33P-ATP by ProQinase assay relative to control
[17] = biological target: Dual specificity tyrosine-phosphorylation-regulated kinase 4 (Homo sapiens) (UniProt Q9NR20); test: Inhibition of human DYRK4 assessed as residual activity at 1 uM using RBER-CHKtide as substrate in presence of 33P-ATP by ProQinase assay relative to control
[18] = tested on: Epidermal growth factor receptor (Homo sapiens), P00533 [L858R]; test: Inhibition of human EGFR L858R mutant assessed as residual activity at 1 uM using PolyEY as substrate in presence of 33P-ATP by ProQinase assay relative to control
[19] = biological target: Receptor tyrosine-protein kinase erbB-2 (Homo sapiens) (UniProt P04626); test: Inhibition of human ERBB2 assessed as residual activity at 1 uM using polyEY as substrate in presence of 33P-ATP by ProQinase assay relative to control
[20] = tested on: Fibroblast growth factor receptor 3 (Homo sapiens), P22607 [K650E]; test: Inhibition of human FGFR3 K650E mutant assessed as residual activity at 1 uM using PolyEY as substrate in presence of 33P-ATP by ProQinase assay relative to control
[21] = biological target: G protein-coupled receptor kinase 6 (Homo sapiens) (UniProt P43250); test: Inhibition of human GRK6 assessed as residual activity at 1 uM using casein as substrate in presence of 33P-ATP by ProQinase assay relative to control
[22] = tested on: Mast/stem cell growth factor receptor Kit (Homo sapiens), P10721 [T670I]; test: Inhibition of human KIT T670I mutant assessed as residual activity at 1 uM using polyEY as substrate in presence of 33P-ATP by ProQinase assay relative to control
[23] = biological target: Myosin light chain kinase, smooth muscle (Homo sapiens) (UniProt Q15746); test: Inhibition of human MYLK assessed as residual activity at 1 uM using RB-S6P as substrate in presence of 33P-ATP by ProQinase assay relative to control
[24] = biological target: Protein kinase C iota type (Homo sapiens) (UniProt P41743); test: Inhibition of human PKCiota assessed as residual activity at 1 uM using 3xChocktide-PKC(19-31) as substrate in presence of 33P-ATP by ProQinase assay relative to control
[25] = biological target: Serine/threonine-protein kinase PLK1 (Homo sapiens) (UniProt P53350); test: Inhibition of human PLK1 assessed as residual activity at 1 uM using RBER-CHKtide as substrate in presence of 33P-ATP by ProQinase assay relative to control
[26] = biological target: Ribosomal protein S6 kinase beta-2 (Homo sapiens) (UniProt Q9UBS0); test: Inhibition of human S6K-beta assessed as residual activity at 1 uM using RBER-CHKtide as substrate in presence of 33P-ATP by ProQinase assay relative to control
[27] = Anti-inflammatory activity against human derived high respond PBMC cells assessed as inhibition in stimulated TNF-alpha cytokine release incubated for 2 hrs in the presence of LPS/SEB/aCD28 by Luminex based sandwich immunoassay; type: functional, cell-based
[28] = Anti-inflammatory activity against human derived high respond PBMC cells assessed as inhibition in stimulated IL-10 cytokine release incubated for 2 hrs in the presence of LPS/SEB/aCD28 by Luminex based sandwich immunoassay; type: functional, cell-based
[29] = Anti-inflammatory activity against human derived medium respond PBMC cells assessed as inhibition in stimulated INFgamma cytokine release incubated for 2 hrs in the presence of LPS/SEB/aCD28 by Luminex based sandwich immunoassay; type: functional, cell-based

Chain of G protein-coupled receptor kinase 6 (Homo sapiens) (P43250 whole entry, looked up): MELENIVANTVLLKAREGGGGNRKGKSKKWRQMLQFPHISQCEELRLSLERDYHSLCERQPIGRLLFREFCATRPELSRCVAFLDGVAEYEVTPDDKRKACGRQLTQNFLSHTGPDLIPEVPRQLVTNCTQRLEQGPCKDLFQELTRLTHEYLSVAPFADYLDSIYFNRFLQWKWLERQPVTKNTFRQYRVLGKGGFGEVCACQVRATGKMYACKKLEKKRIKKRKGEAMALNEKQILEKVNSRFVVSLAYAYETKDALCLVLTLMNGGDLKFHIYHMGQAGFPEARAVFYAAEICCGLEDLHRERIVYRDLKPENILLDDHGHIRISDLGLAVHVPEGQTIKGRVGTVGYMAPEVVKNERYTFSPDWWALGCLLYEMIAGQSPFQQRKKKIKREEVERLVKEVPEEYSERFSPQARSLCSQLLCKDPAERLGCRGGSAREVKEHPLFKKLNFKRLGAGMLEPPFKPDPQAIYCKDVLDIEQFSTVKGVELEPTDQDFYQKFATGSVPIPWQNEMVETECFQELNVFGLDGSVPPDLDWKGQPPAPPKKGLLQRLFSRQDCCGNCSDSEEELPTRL
Chain of Serine/threonine-protein kinase PLK1 (Homo sapiens) (P53350 whole entry): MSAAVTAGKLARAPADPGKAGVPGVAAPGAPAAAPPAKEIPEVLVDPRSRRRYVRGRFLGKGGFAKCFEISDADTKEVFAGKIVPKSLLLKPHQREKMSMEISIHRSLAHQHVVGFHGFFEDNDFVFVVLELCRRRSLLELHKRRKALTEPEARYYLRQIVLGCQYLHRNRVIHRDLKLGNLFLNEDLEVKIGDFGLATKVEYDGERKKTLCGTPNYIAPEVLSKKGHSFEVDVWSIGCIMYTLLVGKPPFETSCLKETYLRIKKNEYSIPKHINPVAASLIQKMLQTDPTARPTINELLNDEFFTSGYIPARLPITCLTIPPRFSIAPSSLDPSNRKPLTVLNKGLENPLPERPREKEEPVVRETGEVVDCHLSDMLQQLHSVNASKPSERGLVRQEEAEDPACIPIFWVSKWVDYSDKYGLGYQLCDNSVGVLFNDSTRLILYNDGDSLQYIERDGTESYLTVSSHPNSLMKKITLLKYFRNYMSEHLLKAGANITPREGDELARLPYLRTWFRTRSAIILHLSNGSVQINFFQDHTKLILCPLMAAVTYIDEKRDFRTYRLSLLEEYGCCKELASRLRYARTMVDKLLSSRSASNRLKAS
Chain of Fibroblast growth factor receptor 3 (Homo sapiens), P22607 [K650E] (P22607 whole entry K650E): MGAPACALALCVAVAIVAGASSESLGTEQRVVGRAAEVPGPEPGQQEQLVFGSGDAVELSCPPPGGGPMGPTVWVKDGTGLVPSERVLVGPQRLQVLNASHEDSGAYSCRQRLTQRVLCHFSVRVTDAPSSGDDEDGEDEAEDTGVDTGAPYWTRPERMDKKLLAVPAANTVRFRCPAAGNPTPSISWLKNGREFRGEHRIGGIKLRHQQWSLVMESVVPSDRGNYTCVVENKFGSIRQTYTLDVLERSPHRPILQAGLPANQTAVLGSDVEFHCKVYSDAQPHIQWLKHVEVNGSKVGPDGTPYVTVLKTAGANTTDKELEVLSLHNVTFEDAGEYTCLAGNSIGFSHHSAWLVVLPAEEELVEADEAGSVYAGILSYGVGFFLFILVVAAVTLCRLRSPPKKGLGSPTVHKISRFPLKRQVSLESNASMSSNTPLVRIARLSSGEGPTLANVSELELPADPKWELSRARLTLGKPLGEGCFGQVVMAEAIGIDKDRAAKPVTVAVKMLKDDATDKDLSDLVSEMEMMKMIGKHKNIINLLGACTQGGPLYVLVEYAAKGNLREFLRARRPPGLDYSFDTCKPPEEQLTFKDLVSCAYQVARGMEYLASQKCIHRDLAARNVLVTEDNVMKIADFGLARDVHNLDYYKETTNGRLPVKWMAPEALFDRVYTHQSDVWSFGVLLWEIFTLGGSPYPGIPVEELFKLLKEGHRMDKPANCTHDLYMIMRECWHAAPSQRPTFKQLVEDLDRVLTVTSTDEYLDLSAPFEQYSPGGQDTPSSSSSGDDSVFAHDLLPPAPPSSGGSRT
Chain of Uncharacterized serine/threonine-protein kinase SBK3 (Homo sapiens) (P0C264 whole entry): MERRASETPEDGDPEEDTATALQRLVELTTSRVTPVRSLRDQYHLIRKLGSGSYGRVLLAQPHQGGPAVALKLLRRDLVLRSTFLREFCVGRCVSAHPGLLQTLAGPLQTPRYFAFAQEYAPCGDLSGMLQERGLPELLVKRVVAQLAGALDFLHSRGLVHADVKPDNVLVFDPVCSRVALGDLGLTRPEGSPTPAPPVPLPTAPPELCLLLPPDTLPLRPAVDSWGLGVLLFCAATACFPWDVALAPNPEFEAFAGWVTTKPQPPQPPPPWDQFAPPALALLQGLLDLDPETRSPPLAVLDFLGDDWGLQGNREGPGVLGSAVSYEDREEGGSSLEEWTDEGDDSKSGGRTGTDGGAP
Chain of Myosin light chain kinase, smooth muscle (Homo sapiens) (Q15746 whole entry): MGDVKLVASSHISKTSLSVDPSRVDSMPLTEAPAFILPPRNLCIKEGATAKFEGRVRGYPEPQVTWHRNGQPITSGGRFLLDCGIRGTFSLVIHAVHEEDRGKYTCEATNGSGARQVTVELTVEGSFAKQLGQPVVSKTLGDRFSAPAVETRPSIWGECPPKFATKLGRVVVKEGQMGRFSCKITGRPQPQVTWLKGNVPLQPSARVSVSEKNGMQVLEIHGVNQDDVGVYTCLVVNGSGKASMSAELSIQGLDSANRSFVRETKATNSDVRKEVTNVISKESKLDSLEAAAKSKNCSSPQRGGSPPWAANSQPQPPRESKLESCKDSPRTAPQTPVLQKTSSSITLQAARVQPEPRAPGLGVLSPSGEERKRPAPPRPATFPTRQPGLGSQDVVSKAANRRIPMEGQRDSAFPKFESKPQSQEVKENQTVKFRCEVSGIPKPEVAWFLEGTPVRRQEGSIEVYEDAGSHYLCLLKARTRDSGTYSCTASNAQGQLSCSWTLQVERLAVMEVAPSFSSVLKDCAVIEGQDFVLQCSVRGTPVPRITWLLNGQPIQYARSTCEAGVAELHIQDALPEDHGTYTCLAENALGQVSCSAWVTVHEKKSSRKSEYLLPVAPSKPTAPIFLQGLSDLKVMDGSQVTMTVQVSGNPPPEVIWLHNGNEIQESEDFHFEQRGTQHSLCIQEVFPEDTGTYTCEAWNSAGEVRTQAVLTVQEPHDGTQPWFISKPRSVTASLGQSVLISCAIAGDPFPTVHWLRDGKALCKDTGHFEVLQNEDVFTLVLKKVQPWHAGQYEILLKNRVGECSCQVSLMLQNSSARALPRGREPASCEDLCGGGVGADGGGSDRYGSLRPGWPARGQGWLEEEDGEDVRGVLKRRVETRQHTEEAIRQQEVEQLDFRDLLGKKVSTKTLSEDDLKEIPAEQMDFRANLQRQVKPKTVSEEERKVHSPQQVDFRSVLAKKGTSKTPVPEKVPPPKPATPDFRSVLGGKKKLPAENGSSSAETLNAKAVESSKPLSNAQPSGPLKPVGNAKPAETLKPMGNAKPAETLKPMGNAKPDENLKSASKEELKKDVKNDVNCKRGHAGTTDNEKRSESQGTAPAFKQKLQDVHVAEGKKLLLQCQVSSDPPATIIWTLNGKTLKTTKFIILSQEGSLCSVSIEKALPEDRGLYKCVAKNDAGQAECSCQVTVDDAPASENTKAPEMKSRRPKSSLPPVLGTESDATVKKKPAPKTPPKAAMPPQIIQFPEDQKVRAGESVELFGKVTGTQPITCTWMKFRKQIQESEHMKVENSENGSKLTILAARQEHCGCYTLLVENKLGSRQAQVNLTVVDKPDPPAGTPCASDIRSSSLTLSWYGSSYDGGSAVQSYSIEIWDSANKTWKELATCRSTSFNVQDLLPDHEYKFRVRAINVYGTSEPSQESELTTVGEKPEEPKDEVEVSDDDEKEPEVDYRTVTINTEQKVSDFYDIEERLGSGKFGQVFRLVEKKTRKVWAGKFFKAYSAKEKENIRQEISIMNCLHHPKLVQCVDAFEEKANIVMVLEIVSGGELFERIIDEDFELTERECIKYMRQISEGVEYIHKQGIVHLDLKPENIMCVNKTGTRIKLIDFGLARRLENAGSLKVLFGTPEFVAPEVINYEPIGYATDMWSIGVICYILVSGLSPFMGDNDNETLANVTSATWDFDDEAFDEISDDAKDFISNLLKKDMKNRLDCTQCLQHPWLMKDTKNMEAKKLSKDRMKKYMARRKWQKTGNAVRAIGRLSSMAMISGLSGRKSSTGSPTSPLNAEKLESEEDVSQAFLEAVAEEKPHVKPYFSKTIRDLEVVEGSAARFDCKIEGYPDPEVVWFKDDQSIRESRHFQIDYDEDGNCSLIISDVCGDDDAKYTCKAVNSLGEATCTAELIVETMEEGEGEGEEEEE
Chain of Protein kinase C iota type (Homo sapiens) (P41743 whole entry): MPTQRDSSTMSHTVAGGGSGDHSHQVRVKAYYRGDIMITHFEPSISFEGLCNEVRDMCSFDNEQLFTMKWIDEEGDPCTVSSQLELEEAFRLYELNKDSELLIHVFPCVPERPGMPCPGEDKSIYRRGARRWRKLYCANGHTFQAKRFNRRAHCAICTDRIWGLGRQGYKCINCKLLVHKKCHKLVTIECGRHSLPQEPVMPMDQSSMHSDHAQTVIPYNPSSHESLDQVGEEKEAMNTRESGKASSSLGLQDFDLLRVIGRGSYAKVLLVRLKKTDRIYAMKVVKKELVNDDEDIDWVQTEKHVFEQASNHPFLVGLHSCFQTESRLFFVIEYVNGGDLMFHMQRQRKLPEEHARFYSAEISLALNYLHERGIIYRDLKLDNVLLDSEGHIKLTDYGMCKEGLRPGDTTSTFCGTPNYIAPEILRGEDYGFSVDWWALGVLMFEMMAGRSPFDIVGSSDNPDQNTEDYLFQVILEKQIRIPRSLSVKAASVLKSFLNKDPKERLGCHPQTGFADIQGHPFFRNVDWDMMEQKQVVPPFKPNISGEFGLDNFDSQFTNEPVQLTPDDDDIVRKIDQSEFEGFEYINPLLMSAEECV

`O=C1c2ccc(Nc3ccc(F)cc3F)cc2CCc2ccc(OC[C@H](O)CO)cc21` [Skepinone-L] gave an Activity [1] of 100%, an Activity [2] of 100% and an Activity [3] of 100%. It also gave an Activity [4] of 100%, an Activity [5] of 94% and an Activity [6] of 90%. It also gave an Activity [7] of 100%, an Activity [8] of 100% and an Activity [9] of 85%. The Activity [10] was 90%, the Activity [11] was 90% and the Activity [12] was 90%. For the same compound, the Activity [13] was 100%, the Activity [14] was 83% and the Activity [15] was 88%. For the same compound, the Activity [16] was 86%, the Activity [17] was 93% and the Activity [18] was 89%. For the same compound, the Activity [19] was 91%, the Activity [20] was 99% and the Activity [21] was 82%. It also gave an Activity [22] of 145%, an Activity [23] of 78% and an Activity [24] of 91%. For the same compound, the Activity [25] was 97%, the Activity [26] was 89% and the IC50 [27] was 50 nM. For the same compound, the IC50 [28] was 50 nM and the IC50 [29] was 300 nM.

— ChEMBL document CHEMBL5696441 (Nat Chem Biol, 2011)
